# Test results taken from PubChem BioAssay (NCI).
# Several values for one entry are separate records, joined by “and”; a condition that tells them apart may be missing. Equal entries are not always repeated.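 Cells were grown in 96-well plates and exposed to each compound for 48 hours at five concentrations; endpoints were interpolated linearly between bracketing concentrations, or set to the highest concentration if not reached. GI50 is the concentration that inhibits growth by half. Definition used: TGI = concentration required for complete inhibition of growth.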
# Tested on: A498 renal
# Assay: DTP human tumour cell line panel, 48 h
Structure (SMILES),TGI,GI50
O=c1c(F)cn2c(=O)n1CCCCCCCn1c(=O)c(F)cn(c1=O)CCCCCCC2,> 100 µM,–
O=C(ON=C1c2ccccc2C(Br)C(Br)c2ccccc21)c1ccccc1 (stereo not drawn),40.9 µM,–
CC(=O)c1ccc(Oc2c3ccccc3nc3ccccc23)cc1,31.8 µM,–
Cn1c2ccccc2n2c3ncccc3c(=O)c(C#N)c12,34 µM,–
COc1ccc2nc(NC(=O)/C(C#N)=C/c3ccccc3)sc2c1,> 100 µM,–
Cc1nc2ccc(Cl)cc2c(-n2ccnc2)c1CCn1ccnc1,76.2 µM,–
Cc1c(C)n(-c2ccccc2)c2nc(S(C)=O)nc(S(C)=O)c12 (stereo not drawn),26.9 µM,–
CC1(C)CC(=O)C2=C(C1)C(c1ccccc1Cl)C1C(=O)CC(C)(C)CC1(O)O2 (stereo not drawn),> 100 µM,–
C[C@@H]1CC[C@@]2(C)C(C(=O)O)=CCCC2[C@@]1(C)CC(=O)c1ccoc1 (stereo partly drawn),> 25 µM,–
O=C(CCc1cc(O)cc(O)c1)NCCc1cc(OCc2ccccc2)cc(OCc2ccccc2)c1,42.8 µM,–
c1ccc(C2=NC3OC2c2ccccc23)cc1 (stereo not drawn),> 10 µM,–
CCOC(=O)CSc1nc(N)c2c(-c3ccccc3)c3c(nc2n1)CCCC3,> 100 µM,–
COC(=O)/C=C(/C=C1/C(C#N)=C(N)N(c2ccc(Cl)cc2)C1(C)/C(=C\C(=O)OC)C(=O)OC)C(=O)OC (stereo not drawn),> 100 µM,–
Cc1c2ccnc(C(N)=O)c2c(C)c2c1[nH]c1ccccc12,26.7 µM and 12.4 µM,3.09 µM
O=c1c2c3c(sc2[nH]c(=S)n1-c1ccccc1)CCCc1ccc([N+](=O)[O-])cc1-3,> 100 µM,–
CCOC1C=CC(=O)C(CO)O1 (stereo not drawn),49.4 µM,–
Cc1c2cccc-2c2cc(O)c3ccccc3c2n1-c1ccc(N(C)C)cc1,30.7 µM,–
O=CC(I)=C(c1ccccc1)c1ccccc1,41.8 µM,–
Cn1c2ccccc2c2ccc3c(c21)C(=O)c1ccc2c4ccccc4n(C)c2c1C3=O,> 100 µM,–
Cc1ccc(-c2cc(-c3ccco3)c(C#N)c(=S)[nH]2)cc1,> 100 µM,–
COC(=O)c1ccccc1C1CN=NC12Cc1c(ccc(C)c1C)C2=O (stereo not drawn),> 100 µM,–
CN(C)CCN(c1ccccn1)c1ccccn1,> 100 µM,–
O=C(O)c1nc2ccc(C(F)(F)F)cc2[nH]c1=O,> 100 µM,–
CC(C)NC(=O)OCc1c(COC(=O)NC(C)C)n(C)c2c1ccc1sccc12,52.3 µM,–
O=C(CC(NC(=O)C(F)(F)F)C(=O)O)OCc1ccccc1 (stereo not drawn),> 100 µM,–
O=C1C=CC2(O[C@H](c3ccccc3)[C@@H](c3ccccc3)O2)[C@H](Sc2ccccc2O)C1,5.15 µM,–

# Tested on: CAKI-1 renal
# Assay: DTP human tumour cell line panel, 48 h
Structure (SMILES),TGI,GI50
O=c1c(F)cn2c(=O)n1CCCCCCCn1c(=O)c(F)cn(c1=O)CCCCCCC2,> 100 µM,–
O=C(ON=C1c2ccccc2C(Br)C(Br)c2ccccc21)c1ccccc1 (stereo not drawn),23.7 µM,–
CC(=O)c1ccc(Oc2c3ccccc3nc3ccccc23)cc1,17.3 µM,–
Cn1c2ccccc2n2c3ncccc3c(=O)c(C#N)c12,> 77.3 µM,–
COc1ccc2nc(NC(=O)/C(C#N)=C/c3ccccc3)sc2c1,> 100 µM,–
Cc1nc2ccc(Cl)cc2c(-n2ccnc2)c1CCn1ccnc1,> 100 µM,–
Cc1c(C)n(-c2ccccc2)c2nc(S(C)=O)nc(S(C)=O)c12 (stereo not drawn),2.66 µM,–
CC1(C)CC(=O)C2=C(C1)C(c1ccccc1Cl)C1C(=O)CC(C)(C)CC1(O)O2 (stereo not drawn),> 100 µM,–
C[C@@H]1CC[C@@]2(C)C(C(=O)O)=CCCC2[C@@]1(C)CC(=O)c1ccoc1 (stereo partly drawn),> 25 µM,–
O=C(CCc1cc(O)cc(O)c1)NCCc1cc(OCc2ccccc2)cc(OCc2ccccc2)c1,36.8 µM,–
c1ccc(C2=NC3OC2c2ccccc23)cc1 (stereo not drawn),> 10 µM,–
CCOC(=O)CSc1nc(N)c2c(-c3ccccc3)c3c(nc2n1)CCCC3,> 100 µM,–
COC(=O)/C=C(/C=C1/C(C#N)=C(N)N(c2ccc(Cl)cc2)C1(C)/C(=C\C(=O)OC)C(=O)OC)C(=O)OC (stereo not drawn),45.5 µM,–
Cc1c2ccnc(C(N)=O)c2c(C)c2c1[nH]c1ccccc12,9.58 µM and 26.4 µM,4.82 µM
O=c1c2c3c(sc2[nH]c(=S)n1-c1ccccc1)CCCc1ccc([N+](=O)[O-])cc1-3,> 100 µM,–
CCOC1C=CC(=O)C(CO)O1 (stereo not drawn),27.3 µM,–
Cc1c2cccc-2c2cc(O)c3ccccc3c2n1-c1ccc(N(C)C)cc1,31.7 µM,–
O=CC(I)=C(c1ccccc1)c1ccccc1,30.4 µM,–
Cn1c2ccccc2c2ccc3c(c21)C(=O)c1ccc2c4ccccc4n(C)c2c1C3=O,> 100 µM,–
Cc1ccc(-c2cc(-c3ccco3)c(C#N)c(=S)[nH]2)cc1,> 100 µM,–
COC(=O)c1ccccc1C1CN=NC12Cc1c(ccc(C)c1C)C2=O (stereo not drawn),> 100 µM,–
CN(C)CCN(c1ccccn1)c1ccccn1,> 100 µM,–
O=C(O)c1nc2ccc(C(F)(F)F)cc2[nH]c1=O,> 100 µM,–
CC(C)NC(=O)OCc1c(COC(=O)NC(C)C)n(C)c2c1ccc1sccc12,50.1 µM,–
O=C(CC(NC(=O)C(F)(F)F)C(=O)O)OCc1ccccc1 (stereo not drawn),> 100 µM,–
O=C1C=CC2(O[C@H](c3ccccc3)[C@@H](c3ccccc3)O2)[C@H](Sc2ccccc2O)C1,0.886 µM,–

# Tested on: HL-60(TB) leukemia
# Assay: DTP human tumour cell line panel, 48 h
Structure (SMILES),TGI,GI50
O=c1c(F)cn2c(=O)n1CCCCCCCn1c(=O)c(F)cn(c1=O)CCCCCCC2,> 100 µM,–
O=C(ON=C1c2ccccc2C(Br)C(Br)c2ccccc21)c1ccccc1 (stereo not drawn),1.22 µM,–
CC(=O)c1ccc(Oc2c3ccccc3nc3ccccc23)cc1,0.463 µM,–
Cn1c2ccccc2n2c3ncccc3c(=O)c(C#N)c12,> 100 µM,–
COc1ccc2nc(NC(=O)/C(C#N)=C/c3ccccc3)sc2c1,36.7 µM,–
Cc1nc2ccc(Cl)cc2c(-n2ccnc2)c1CCn1ccnc1,62.7 µM,–
Cc1c(C)n(-c2ccccc2)c2nc(S(C)=O)nc(S(C)=O)c12 (stereo not drawn),3.39 µM,–
CC1(C)CC(=O)C2=C(C1)C(c1ccccc1Cl)C1C(=O)CC(C)(C)CC1(O)O2 (stereo not drawn),> 43.7 µM,–
C[C@@H]1CC[C@@]2(C)C(C(=O)O)=CCCC2[C@@]1(C)CC(=O)c1ccoc1 (stereo partly drawn),> 25 µM,–
O=C(CCc1cc(O)cc(O)c1)NCCc1cc(OCc2ccccc2)cc(OCc2ccccc2)c1,12.2 µM,–
c1ccc(C2=NC3OC2c2ccccc23)cc1 (stereo not drawn),> 10 µM,–
CCOC(=O)CSc1nc(N)c2c(-c3ccccc3)c3c(nc2n1)CCCC3,> 100 µM,–
COC(=O)/C=C(/C=C1/C(C#N)=C(N)N(c2ccc(Cl)cc2)C1(C)/C(=C\C(=O)OC)C(=O)OC)C(=O)OC (stereo not drawn),> 100 µM,–
Cc1c2ccnc(C(N)=O)c2c(C)c2c1[nH]c1ccccc12,38.3 µM and > 100 µM,4.36 µM
O=c1c2c3c(sc2[nH]c(=S)n1-c1ccccc1)CCCc1ccc([N+](=O)[O-])cc1-3,50.8 µM,–
CCOC1C=CC(=O)C(CO)O1 (stereo not drawn),20.9 µM,–
Cc1c2cccc-2c2cc(O)c3ccccc3c2n1-c1ccc(N(C)C)cc1,> 100 µM,–
O=CC(I)=C(c1ccccc1)c1ccccc1,38.6 µM,–
Cn1c2ccccc2c2ccc3c(c21)C(=O)c1ccc2c4ccccc4n(C)c2c1C3=O,> 100 µM,–
Cc1ccc(-c2cc(-c3ccco3)c(C#N)c(=S)[nH]2)cc1,> 100 µM,–
COC(=O)c1ccccc1C1CN=NC12Cc1c(ccc(C)c1C)C2=O (stereo not drawn),> 100 µM,–
CN(C)CCN(c1ccccn1)c1ccccn1,> 100 µM,–
O=C(O)c1nc2ccc(C(F)(F)F)cc2[nH]c1=O,> 100 µM,–
CC(C)NC(=O)OCc1c(COC(=O)NC(C)C)n(C)c2c1ccc1sccc12,> 100 µM,–
O=C(CC(NC(=O)C(F)(F)F)C(=O)O)OCc1ccccc1 (stereo not drawn),> 100 µM,–
O=C1C=CC2(O[C@H](c3ccccc3)[C@@H](c3ccccc3)O2)[C@H](Sc2ccccc2O)C1,2.82 µM,–

# Tested on: HOP-92 NSCLC
# Assay: DTP human tumour cell line panel, 48 h
Structure (SMILES),TGI,GI50
O=c1c(F)cn2c(=O)n1CCCCCCCn1c(=O)c(F)cn(c1=O)CCCCCCC2,> 100 µM,–
O=C(ON=C1c2ccccc2C(Br)C(Br)c2ccccc21)c1ccccc1 (stereo not drawn),5.27 µM,–
CC(=O)c1ccc(Oc2c3ccccc3nc3ccccc23)cc1,25.6 µM,–
Cn1c2ccccc2n2c3ncccc3c(=O)c(C#N)c12,> 100 µM,–
COc1ccc2nc(NC(=O)/C(C#N)=C/c3ccccc3)sc2c1,> 100 µM,–
Cc1nc2ccc(Cl)cc2c(-n2ccnc2)c1CCn1ccnc1,57.8 µM,–
Cc1c(C)n(-c2ccccc2)c2nc(S(C)=O)nc(S(C)=O)c12 (stereo not drawn),4.62 µM,–
CC1(C)CC(=O)C2=C(C1)C(c1ccccc1Cl)C1C(=O)CC(C)(C)CC1(O)O2 (stereo not drawn),> 100 µM,–
C[C@@H]1CC[C@@]2(C)C(C(=O)O)=CCCC2[C@@]1(C)CC(=O)c1ccoc1 (stereo partly drawn),> 25 µM,–
O=C(CCc1cc(O)cc(O)c1)NCCc1cc(OCc2ccccc2)cc(OCc2ccccc2)c1,45.3 µM,–
c1ccc(C2=NC3OC2c2ccccc23)cc1 (stereo not drawn),> 10 µM,–
CCOC(=O)CSc1nc(N)c2c(-c3ccccc3)c3c(nc2n1)CCCC3,> 100 µM,–
COC(=O)/C=C(/C=C1/C(C#N)=C(N)N(c2ccc(Cl)cc2)C1(C)/C(=C\C(=O)OC)C(=O)OC)C(=O)OC (stereo not drawn),48 µM,–
Cc1c2ccnc(C(N)=O)c2c(C)c2c1[nH]c1ccccc12,12 µM and 53.2 µM,2.96 µM and 11.5 µM
O=c1c2c3c(sc2[nH]c(=S)n1-c1ccccc1)CCCc1ccc([N+](=O)[O-])cc1-3,76.6 µM,–
CCOC1C=CC(=O)C(CO)O1 (stereo not drawn),8.29 µM,–
Cc1c2cccc-2c2cc(O)c3ccccc3c2n1-c1ccc(N(C)C)cc1,8 µM,–
O=CC(I)=C(c1ccccc1)c1ccccc1,38.1 µM,–
Cn1c2ccccc2c2ccc3c(c21)C(=O)c1ccc2c4ccccc4n(C)c2c1C3=O,> 100 µM,–
Cc1ccc(-c2cc(-c3ccco3)c(C#N)c(=S)[nH]2)cc1,> 100 µM,–
COC(=O)c1ccccc1C1CN=NC12Cc1c(ccc(C)c1C)C2=O (stereo not drawn),84.2 µM,–
CN(C)CCN(c1ccccn1)c1ccccn1,> 100 µM,–
O=C(O)c1nc2ccc(C(F)(F)F)cc2[nH]c1=O,> 100 µM,–
CC(C)NC(=O)OCc1c(COC(=O)NC(C)C)n(C)c2c1ccc1sccc12,27.3 µM,–
O=C(CC(NC(=O)C(F)(F)F)C(=O)O)OCc1ccccc1 (stereo not drawn),> 100 µM,–
O=C1C=CC2(O[C@H](c3ccccc3)[C@@H](c3ccccc3)O2)[C@H](Sc2ccccc2O)C1,1.32 µM,–

# Tested on: LOX IMVI melanoma
# Assay: DTP human tumour cell line panel, 48 h
row,Structure (SMILES),TGI
1,O=c1c(F)cn2c(=O)n1CCCCCCCn1c(=O)c(F)cn(c1=O)CCCCCCC2,> 100 µM
2,O=C(ON=C1c2ccccc2C(Br)C(Br)c2ccccc21)c1ccccc1 (stereo not drawn),9.12 µM
3,CC(=O)c1ccc(Oc2c3ccccc3nc3ccccc23)cc1,17.9 µM
4,Cn1c2ccccc2n2c3ncccc3c(=O)c(C#N)c12,23.1 µM
5,COc1ccc2nc(NC(=O)/C(C#N)=C/c3ccccc3)sc2c1,> 100 µM
6,Cc1nc2ccc(Cl)cc2c(-n2ccnc2)c1CCn1ccnc1,> 100 µM
7,Cc1c(C)n(-c2ccccc2)c2nc(S(C)=O)nc(S(C)=O)c12 (stereo not drawn),4.15 µM
8,CC1(C)CC(=O)C2=C(C1)C(c1ccccc1Cl)C1C(=O)CC(C)(C)CC1(O)O2 (stereo not drawn),> 100 µM
9,C[C@@H]1CC[C@@]2(C)C(C(=O)O)=CCCC2[C@@]1(C)CC(=O)c1ccoc1 (stereo partly drawn),> 25 µM
10,O=C(CCc1cc(O)cc(O)c1)NCCc1cc(OCc2ccccc2)cc(OCc2ccccc2)c1,32 µM
11,c1ccc(C2=NC3OC2c2ccccc23)cc1 (stereo not drawn),> 10 µM
12,CCOC(=O)CSc1nc(N)c2c(-c3ccccc3)c3c(nc2n1)CCCC3,> 100 µM
13,COC(=O)/C=C(/C=C1/C(C#N)=C(N)N(c2ccc(Cl)cc2)C1(C)/C(=C\C(=O)OC)C(=O)OC)C(=O)OC (stereo not drawn),32.4 µM
14,Cc1c2ccnc(C(N)=O)c2c(C)c2c1[nH]c1ccccc12,21.2 µM
15,O=c1c2c3c(sc2[nH]c(=S)n1-c1ccccc1)CCCc1ccc([N+](=O)[O-])cc1-3,62.2 µM
16,CCOC1C=CC(=O)C(CO)O1 (stereo not drawn),17.8 µM
17,Cc1c2cccc-2c2cc(O)c3ccccc3c2n1-c1ccc(N(C)C)cc1,27.8 µM
18,O=CC(I)=C(c1ccccc1)c1ccccc1,28.6 µM
19,Cn1c2ccccc2c2ccc3c(c21)C(=O)c1ccc2c4ccccc4n(C)c2c1C3=O,> 100 µM
20,Cc1ccc(-c2cc(-c3ccco3)c(C#N)c(=S)[nH]2)cc1,> 100 µM
21,COC(=O)c1ccccc1C1CN=NC12Cc1c(ccc(C)c1C)C2=O (stereo not drawn),> 100 µM
22,CN(C)CCN(c1ccccn1)c1ccccn1,> 100 µM
23,O=C(O)c1nc2ccc(C(F)(F)F)cc2[nH]c1=O,> 100 µM
24,CC(C)NC(=O)OCc1c(COC(=O)NC(C)C)n(C)c2c1ccc1sccc12,> 53.1 µM
25,O=C(CC(NC(=O)C(F)(F)F)C(=O)O)OCc1ccccc1 (stereo not drawn),> 100 µM
